Values joined by “and” are separate entries in the source; they are usually repeats but may differ in a detail not shown here. Equal entries are not always repeated.
Experiments:
[1] = tested on: NRF2 (nuclear factor erythroid 2-related factor 2); assay: NRF2 +/-GSH activation assay (DiscoverX PathHunter NRF2 translocation kit, U2OS cells); type: cell-based; details: for Emax (%) +GSH / Emax (%) −GSH: normalised to dimethyl fumarate high control
[2] = tested on: IL-6 cytokine output from THP-1s; assay: THP-1 AlphaLISA IL-6 cytokine assay; type: cell-based; details: LPS then nigericin, Table 1
Experimental: (§1) The cytokine inhibition profiles of compounds of formula (I) were determined in a differentiated THP-1 cell assay. All assays were performed in RPMI-1640 growth medium (Gibco), supplemented with 10% fetal bovine serum (FBS; Gibco), 1% penicillin-streptomycin and 1% sodium pyruvate unless specified otherwise. The IL-1β and IL-6 cytokine inhibition assays were each run in a background of differentiated THP-1 cells as described below. All reagents described were from Sigma-Aldrich unless specified otherwise. Compounds were prepared as 10 mM DMSO stocks.
(§2) THP-1 cells were expanded as a suspension up to 80% confluence in appropriate growth medium. Cells were harvested, suspended, and treated with an appropriate concentration of phorbol 12-myristate 13-acetate (PMA) over a 72 hr period (37° C./5% CO2).
(§3) Following 72 hrs of THP-1 cell incubation, cellular medium was removed and replaced with fresh growth media containing 1% of FBS. Working concentrations of compounds were prepared separately in 10% FBS treated growth medium and pre-incubated with the cells for 30 minutes (37° C./5% CO2). Following the 30 minute compound pre-incubation, THP-1s were treated with an appropriate concentration of LPS and the THP-1s were subsequently incubated for a 24 hr period (37° C./5% CO2). An appropriate final concentration of Nigericin was then dispensed into the THP-1 plates and incubated for 1 hour (37° C./5% CO2) before THP-1 supernatants were harvested and collected in separate polypropylene 96-well holding plates.
(§4) Reagents from each of the IL-1β and IL-6 commercial kits (Perkin Elmer) were prepared and run according to the manufacturer's instructions. Subsequently, fluorescence signal detection in a microplate reader was measured (EnVision® Multilabel Reader, Perkin Elmer).
(§5) Percentage inhibition was calculated per cytokine by normalising the sample data to the high and low controls used within each plate (+/− LPS respectively). Percentage inhibition was then plotted against compound concentration and the 50% inhibitory concentration (IC50) was determined from the resultant concentration-response curve.

[3] = tested on: IL-1β cytokine output from THP-1s; assay: THP-1 AlphaLISA IL-1β cytokine assay; type: cell-based; details: LPS then nigericin, Table 1
Experimental: as §1, §2, §3, §4, §5

[4] = Hepatocyte stability assay, human; type: in vitro ADME; details: human, cryopreserved hepatocytes, 10 μM compound, read-out: T½
Excerpt: (§6) Defrosted cryo-preserved hepatocytes (viability >70%) were used to determine the metabolic stability of a compound via calculation of intrinsic clearance (Clint; a measure of the removal of a compound from the liver in the absence of blood flow and cell binding). Clearance data are particularly important for in vitro work as they can be used in combination with in vivo data to predict the half-life and oral bioavailability of a drug.
(§7) The metabolic stability in hepatocytes assay involves a time-dependent reaction using both positive and negative controls. The cells were pre-incubated at 37° C. and spiked with test compound (and positive control); samples were taken at pre-determined time intervals were analysed to monitor the change in concentration of the initial drug compound over 60 minutes. A buffer incubation reaction (with no hepatocytes present) acted as a negative control and two cocktail solutions, containing compounds with known high and low clearance values (verapamil/7-hydroxycoumarin and propranolol/diltiazem), acted as positive controls. • 1. The assay was run with a cell concentration of 0.5×10^6 cells/mL in Leibovitz buffer. • 2. All compounds and controls were run in duplicate. • 3. Compound concentration was 10 μM. • 4. All compounds and controls were incubated with both cells and buffer to show turnover was due to hepatic metabolism. • 5. All wells on the incubation plate had 326.7 μL of either cells or buffer added. • 6. Prior to assay, cell and buffer-only incubation plates were preincubated for 10 mins at 37° C. • 7. The assay was initiated by adding compounds, 3.3 μL of 1 mM in 10% DMSO-90% Buffer; final DMSO concentration was 0.1%. • 8. Samples were taken at regular timepoints (0, 5, 10, 20, 40, 60 min) until 60 mins. • 9. Sample volume was 40 μL and was added to 160 μL of crash solvent (acetonitrile with internal standard) and stored on ice. • 10. At the end of the assay, the crash plates were centrifuged at 3500 rpm for 20 mins at 4° C. • 11. 80 μL of clear supernatant was removed and mixed with 80 μL of deionised water before being analysed by LC-MS/MS.
(§8) Raw LC-MS/MS data was exported to, and analysed in, Microsoft Excel for determination of intrinsic clearance. The percentage remaining of a compound was monitored using the peak area of the initial concentration as 100%. Intrinsic clearance and half-life values were calculated using a graph of the natural log of percentage remaining versus the time of reaction in minutes. Half-life (min) and intrinsic clearance (Clint in μL min^−1 10^−6 cells) values were calculated using the gradient of the graph (the elimination rate constant, k) and Equations 1 and 2.

human hepatocytes = assay: Hepatocyte stability assay, human; type: in vitro ADME; details: 10 μM compound
Excerpt: as §6, §7, §8

mouse hepatocytes = assay: Hepatocyte stability assay, mouse; type: in vitro ADME; details: 10 μM compound
Excerpt: as §6, §7, §8

[5] = Hepatocyte stability assay, mouse; type: in vitro ADME; details: mouse, cryopreserved hepatocytes, 10 μM compound, read-out: T½
Excerpt: as §6, §7, §8

[6] = Homo sapiens, THP-1, differentiated THP-1 cells

Row | Structure (SMILES) | EC50 ([1]; +GSH) | Emax (%) +GSH ([1]; +GSH) | EC50 ([1]; −GSH) | Emax (%) −GSH ([1]; −GSH) | IC50 [2, 6] | IC50 [3, 6] | half-life at 10 μM [4] | Clint (μL min^−1 10^−6 cells) (human hepatocytes) | Clint (μL min^−1 10^−6 cells) (mouse hepatocytes) | T½ (mouse hepatocytes) | IC50 ([2]; differentiated THP-1 cells) | IC50 ([3]; differentiated THP-1 cells) | T½ (human hepatocytes) | half-life at 10 μM [5]
1 | C=C(CC(=O)OC1CCc2c(Cl)cc(Cl)cc21)C(=O)OCC(=O)O (single isomer, unassigned; enantiomer 1) [Example 2, 2-((4-((4,6-dichloro-2,3-dihydro-1H-inden-1-yl)oxy)-2-methylene-4-oxobutanoyl)oxy)acetic acid (Enantiomer 1)] | 11.4 µM | 166% | 9 µM | 196% | 4.3 µM | 4 µM | 116 min | 13 μL min^−1 10^−6 cells | 51 μL min^−1 10^−6 cells | 37 min | – | – | – | –
2 | C=C(CC(=O)OC1CCc2cc(Cl)c(Cl)cc21)C(=O)OCC(=O)O (single isomer, unassigned; enantiomer 1) [Example 5, 2-((4-((5,6-dichloro-2,3-dihydro-1H-inden-1-yl)oxy)-2-methylene-4-oxobutanoyl)oxy)acetic acid (Enantiomer 1)] | 19.5 µM | 246% | 10.8 µM | 280% | – | 12.3 µM | 140 min | 11 μL min^−1 10^−6 cells | 431 μL min^−1 10^−6 cells | 3 min | – | – | – | –
3 | C=C(CC(=O)OC1CCc2c(Br)cc(F)cc21)C(=O)OCC(=O)O (single isomer, unassigned; enantiomer 1) [Example 15, 2-((4-((4-bromo-6-fluoro-2,3-dihydro-1H-inden-1-yl)oxy)-2-methylene-4-oxobutanoyl)oxy)acetic acid (Enantiomer 1)] | – | – | – | – | – | 2.4 µM | 165 min | 9 μL min^−1 10^−6 cells | 51 μL min^−1 10^−6 cells | 24 min | – | – | – | –
4 | C=C(CC(=O)OC1CCCc2c(Cl)cc(Cl)cc21)C(=O)OCC(=O)O (single isomer, unassigned; enantiomer 1) [Example 24, 2-((4-((5,7-dichloro-1,2,3,4-tetrahydronaphthalen-1-yl)oxy)-2-methylene-4-oxobutanoyl)oxy)acetic acid (Enantiomer 1)] | 5.7 µM | 84% | 6 µM | 148% | 4.1 µM | 3.3 µM | 32 min | 54 μL min^−1 10^−6 cells | 56 μL min^−1 10^−6 cells | 34 min | – | – | – | –
5 | C=C(CC(=O)OC1CCc2ccc(OC(F)(F)F)cc21)C(=O)OCC(=O)O (single isomer, unassigned; enantiomer 1) [Example 28, 2-((2-methylene-4-oxo-4-((6-(trifluoromethoxy)-2,3-dihydro-1H-inden-1-yl)oxy)butanoyl)oxy)acetic acid (Enantiomer 1)] | 22.5 µM | 139% | 8 µM | 160% | – | 11.7 µM | 75 min | 21 μL min^−1 10^−6 cells | 49 μL min^−1 10^−6 cells | 32 min | 7.6 µM | – | – | –
6 | C=C(CC(=O)OC1CCc2c(Cl)cc(F)cc21)C(=O)OCC(=O)O (single isomer, unassigned; enantiomer 2) [Example 20, 2-((4-((4-chloro-6-fluoro-2,3-dihydro-1H-inden-1-yl)oxy)-2-methylene-4-oxobutanoyl)oxy)acetic acid (Enantiomer 2)] | 31.8 µM | 155% | 12.9 µM | 234% | 3.9 µM | – | – | 11 μL min^−1 10^−6 cells | >460 μL min^−1 10^−6 cells | <3 min | – | 1.4 µM | 125 min | –
7 | C=C(CC(=O)OC1CCCc2c(Cl)cc(Cl)cc21)C(=O)OCC(=O)O (single isomer, unassigned; enantiomer 2) [Example 25, 2-((4-((5,7-dichloro-1,2,3,4-tetrahydronaphthalen-1-yl)oxy)-2-methylene-4-oxobutanoyl)oxy)acetic acid (Enantiomer 2)] | 10.6 µM | 147% | 6 µM | 205% | – | – | – | 29 μL min^−1 10^−6 cells | >460 μL min^−1 10^−6 cells | <3 min | 6.2 µM | 4.8 µM | 58 min | –
8 | C=C(CC(=O)OC1CCc2cc(C(F)(F)F)ccc21)C(=O)OCC(=O)O (single isomer, unassigned; enantiomer 2) [Example 29, 2-((2-methylene-4-oxo-4-((5-(trifluoromethyl)-2,3-dihydro-1H-inden-1-yl)oxy)butanoyl)oxy)acetic acid (Enantiomer 2)] | 18.7 µM and 25.9 µM | 141% and 175% | 5.9 µM and 11.5 µM | 147% and 211% | – | – | – | 10 μL min^−1 10^−6 cells | 92 μL min^−1 10^−6 cells | 17 min | 5.8 µM | 11.4 µM | 152 min | –
9 | C=C(CC(=O)OC1CCc2ccc(OC(F)(F)F)cc21)C(=O)OCC(=O)O (single isomer, unassigned; enantiomer 2) [Example 30, 2-((2-methylene-4-oxo-4-((6-(trifluoromethoxy)-2,3-dihydro-1H-inden-1-yl)oxy)butanoyl)oxy)acetic acid (Enantiomer 2)] | 28.7 µM | 182% | 21.6 µM | 225% | – | – | – | 19 μL min^−1 10^−6 cells | 393 μL min^−1 10^−6 cells | 4 min | 20.6 µM | 7.9 µM | 81 min | –
10 | C=C(CC(=O)OC1CCc2ccc(OC(F)(F)F)cc21)C(=O)OCC(=O)O (stereo not shown) [Example 18, 2-((2-methylene-4-oxo-4-((6-(trifluoromethoxy)-2,3-dihydro-1H-inden-1-yl)oxy)butanoyl)oxy)acetic acid] | 18.4 µM | 105% | 8.7 µM | 121% | – | 2.1 µM | – | – | 146 μL min^−1 10^−6 cells | – | – | – | – | 10 min

Reference: patent US12678419B2, “Compounds” (Sitryx Therapeutics Limited, priority 2020, dated 2026)
